# Data as given in US10844091B2 (priority 2017, dated 2020).
# Non-standard residues stand in square brackets, D forms with d.
# What was measured:
# [1] = Arteriovenous glucose difference in rat models with Alzheimer's disease; type: in vivo; details: tetrapeptide 0.1 mg/kg; as a trend
# Experimental: (§1) The drugs were administered daily, once a day.
# The OF and EE tests were conducted on the 1st day, PST—on the 2nd day, CPAR—on the 1st and 10th day post treatment with the preparations. The CPAR proficiency criterium—remaining in the light area of the CPAR device during at least 180 sec. The antiamnesic action (AA) in the CPAR test was calculated using Butler's formula [K. S. Radionova. Original nootropic preparation Noopept ameliorates memory loss caused by the M- and N-choline receptor blockade in rats/K. S. Radionova, A. P. Bel'nik, R. U. Ostrovskaya//Bul experim. Biology and Medicine.—2008.—T.146, No 1.—pp 65-68]. After that, the animals were removed from the experiment by administering a narcotic, followed by decapitation. The brain was extracted and weighed, and the brain weight coefficient (BWC) was calculated. […] Glucose levels in whole arterial (common carotid artery) and venous (venous cerebral sinus) blood were determined by the glucose oxidase test, the difference in the arterial-venous glucose content was calculated (glucose consumption marker). The levels of average weight molecules—the toxic products of cell biodegradation damaged during the disease (nucleoside derivatives, peptoids, glucuronic acid salts, etc.) in the blood serum (AWM) were calculated [A. N. Kovalevsky. […]
# [2] = tested on: rat models with AD; experiment: Porsolt swim test (PST), scopolamine-induced Alzheimer's disease model; type: in vivo; details: AD rats; donepezil 1 mg/kg i.p., tetrapeptide (LYS) 0.1 mg/kg i.n.
# Experimental: White random-bred adult male rats weighing 200-240 g were used. Groups of 7 animals per group were formed. 1st group—control, 2nd—pathology, 3rd—comparator drug, 4th-6th—neuropeptides.
# (§2) Scopolamine was administered i.p. to the animals in all groups except for the control at a 1 mg/kg dose daily, once a day for 27 days. From the 28th day on, the animals in groups 2 and 3 were administered the comparator drug and the claimed preparation respectively over the course of 10 days. The drugs were administered daily, once a day.
# (§3) The tetrapeptides were administered i.n at a 0.1 mg/kg dose. The animals in the pathology group received 0.9% sodium chloride solution i.n. and i.p. as a placebo.
# The OF and EE tests were conducted on the 1st day, PST—on the 2nd day, CPAR—on the 1st and 10th day post treatment with the preparations. […] The antiamnesic action (AA) in the CPAR test was calculated using Butler's formula [K. S. Radionova. […] After that, the animals were removed from the experiment by administering a narcotic, followed by decapitation. The brain was extracted and weighed, and the brain weight coefficient (BWC) was calculated. Immediately after extraction, the brain was frozen in liquid nitrogen and used in subsequent biochemical and histochemical studies. Glucose levels in whole arterial (common carotid artery) and venous (venous cerebral sinus) blood were determined by the glucose oxidase test, the difference in the arterial-venous glucose content was calculated (glucose consumption marker). The levels of average weight molecules—the toxic products of cell biodegradation damaged during the disease (nucleoside derivatives, peptoids, glucuronic acid salts, etc.) in the blood serum (AWM) were calculated [A. N. Kovalevsky. Notes on the screening method of determination average weight molecules/A. N. Kovalevsky, O. Ye. Nifantiev//Lab. Science. […] 35-39].
# [3] = tested on: catalase; experiment: Catalase activity in the brain of rat models with Alzheimer's disease; type: in vivo; details: tetrapeptide 0.1 mg/kg; statistically significant
# Experimental: as §1
# (§4) Standard biochemical methods were used to determine the content and activity of antioxidant defense enzymes and products of lipid peroxidation: malonic dialdehyde (MDA) [Modern Biochemistry Methods/[edited by V. N. Orekhovich]; M. Medicine, 1977, 392 pp]; superoxide dismutase (SOD) [O. P. Makarevich Activity of superoxide dismutase in blood in the acute period of various diseases/O. P. Makarevich, P. P. Golikov//Lab. Science, 1983, No 6, pp 24-27]; catalase [Methods for the Determination of Catalase Activity/M. A. Korolyuk, L. I. Ivanova, I. G. Mayorova, et al//Lab. Science, 1988, No 1, pp 16-19]; and reduced glutathione [T. A. Kochetov A Practical Guide to Enzymology. M. Nauka, 1980, 280 pp].
# [4] = biological target: acetylcholinesterase (Rattus norvegicus, UniProt P37136); details: donepezil 1 mg/kg, tetrapeptide 0.1 mg/kg
# Experimental: as §2, §3
# (§5) A procedure for the isolation of noradrenaline (together with adrenaline), dopamine, 5-hydroxy tryptamine and histamine from the same tissue sample using a single column of strongly acidic cation exchange resin 1C. […] Determination of ATP content in tissue//Methods for biochemical research/Edited by prof. M. I. Prokhorova, Leningrad, pub.
# [5] = tested on: butyrylcholinesterase; details: tetrapeptide 0.1 mg/kg
# Experimental: as §2, §3, §5
# [6] = tested on: superoxide dismutase; experiment: Superoxide dismutase activity in the brain of rat models with Alzheimer's disease; type: in vivo; details: tetrapeptide 0.1 mg/kg
# Experimental: as §1, §4
# acetylcholinesterase, sequence (P37136 32-614): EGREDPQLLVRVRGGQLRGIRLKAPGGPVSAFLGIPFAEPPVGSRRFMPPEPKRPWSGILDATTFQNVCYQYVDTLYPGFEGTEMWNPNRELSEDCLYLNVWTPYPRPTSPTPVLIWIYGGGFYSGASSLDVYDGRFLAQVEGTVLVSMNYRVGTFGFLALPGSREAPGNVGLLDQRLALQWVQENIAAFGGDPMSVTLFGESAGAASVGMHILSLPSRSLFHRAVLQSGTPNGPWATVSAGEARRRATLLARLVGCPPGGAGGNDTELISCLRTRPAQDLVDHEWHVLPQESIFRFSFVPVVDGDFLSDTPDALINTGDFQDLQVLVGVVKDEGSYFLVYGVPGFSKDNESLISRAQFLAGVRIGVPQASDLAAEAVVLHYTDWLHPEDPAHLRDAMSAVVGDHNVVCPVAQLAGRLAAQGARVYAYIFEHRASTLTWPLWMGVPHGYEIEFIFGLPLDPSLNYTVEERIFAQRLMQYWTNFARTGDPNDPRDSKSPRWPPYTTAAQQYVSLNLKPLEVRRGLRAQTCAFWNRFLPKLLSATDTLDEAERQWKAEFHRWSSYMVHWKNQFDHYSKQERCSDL
substance,measurement,setting,value
"acetyl-D-Lys-Lys-Arg-Arg-amide (Ac-[dK]KRR-NH2; SMILES CC(=O)N[C@H](CCCCN)C(=O)N[C@@H](CCCCN)C(=O)N[C@@H](CCCNC(=N)N)C(=O)N[C@@H](CCCNC(=N)N)C(N)=O) [tetrapeptide (LYS), peptide acetyl-X-ARG-ARG-amide, X = D- and L-amino acid residues of lysine]",glucose utilization in the brain,[1],improved glucose utilization
same,Latent period of immobilization,[2],68.12 ± 6.15 s
same,Number of immobilization acts,[2],6.21 ± 0.82
same,Total duration of immobilization,[2],111.06 ± 13.25 s
same,reduction of the elevated activity of catalase,[3],1.1 times
same,AChE activity in synapsosomes and in the whole brain homogenate,[4],reduces
same,butyrylcholinesterase activity in the brain,[5],significantly increases
same,increase of SOD activity compared to the pathology group,[6],22%
